In publication PMC4923908, “In vitro and in vivo study of epigallocatechin-3-gallate-induced apoptosis in aerobic glycolytic hepatocellular carcinoma cells involving inhibition of phosphofructokinase activity” (Scientific Reports, 2016):

B1: Phosphofructokinase (PFK) purified from rabbit skeletal muscle (enzyme, UniProt P00511 1-780, looked up)
chain: MTHEEHHAARTLGVGKAIAVLTSGGDAQGMNAAVRAVVRVGIFTGARVFFVHEGYQGLVDGGDHIREATWESVSMMLQLGGTVIGSARCKDFREREGRLRAAHNLVKRGITNLCVIGGDGSLTGADTFRSEWSDLLSDLQKAGKITAEEATRSSYLNIVGLVGSIDNDFCGTDMTIGTDSALHRITEIVDAITTTAQSHQRTFVLEVMGRHCGYLALVTSLSCGADWVFIPECPPDDNWEDHLCRRLSETRTRGSRLNIIIVAEGAIDRNGKPITSEGVKDLVVRRLGYDTRVTVLGHVQRGGTPSAFDRILGSRMGVEAVMALLEGTPDTPACVVSLSGNQAVRLPLMECVQVTKDVTKAMDEKRFDEAMKLRGRSFMNNWEVYKLLAHIRPPAPKSGSYTVAVMNVGAPAAGMNAAVRSTVRIGLIQGNRVLVVHDGFEGPAKGQIEEAGWSYVGGWTGQGGSKLGSKRTLPKKSFEQISANITKFNIQGLVIIGGFEAYTGGLELMEGRKQFDELCIPFVVIPATVSNNVPGSDFSVGADTALNTICTTCDRIKQSAAGTKRRVFIIETMGGYCGYLATMAGLAAGADAAYIFEEPFTIRDLQANVEHLVQKMKTTVKRGLVLRNEKCNENYTTDFIFNLYSEEGKGIFDSRKNVLGHMQQGGSPTPFDRNFATKMGAKAMNWMAGKIKESYRNGRIFANTPDSGCVLGMRKRALVFQPVTELQNQTDFEHRIPKEQWWLKLRPILKILAKYEIDLDTSEHAHLEHISRKRSGEATV
notes: Phosphofructokinase from rabbit skeletal muscle (muscle-type ATP-dependent 6-phosphofructokinase); no identifier or residues printed; The number of copies therefore depends on the condition; also called purified PFK; PFK1; source: purified from rabbit skeletal muscle

Columns and labels:
[1] = molecular target: T1, Phosphofructokinase (PFK), purified from rabbit skeletal muscle (Oryctolagus cuniculus, UniProt P00511); assay: radiometric assay of purified PFK ([γ-32P]ATP); supported by intrinsic fluorescence center-of-mass shift (tetramer to dimer); assay type: biochemical
T1 construct: gene PFKM
T1 sequence (P00511 2-780): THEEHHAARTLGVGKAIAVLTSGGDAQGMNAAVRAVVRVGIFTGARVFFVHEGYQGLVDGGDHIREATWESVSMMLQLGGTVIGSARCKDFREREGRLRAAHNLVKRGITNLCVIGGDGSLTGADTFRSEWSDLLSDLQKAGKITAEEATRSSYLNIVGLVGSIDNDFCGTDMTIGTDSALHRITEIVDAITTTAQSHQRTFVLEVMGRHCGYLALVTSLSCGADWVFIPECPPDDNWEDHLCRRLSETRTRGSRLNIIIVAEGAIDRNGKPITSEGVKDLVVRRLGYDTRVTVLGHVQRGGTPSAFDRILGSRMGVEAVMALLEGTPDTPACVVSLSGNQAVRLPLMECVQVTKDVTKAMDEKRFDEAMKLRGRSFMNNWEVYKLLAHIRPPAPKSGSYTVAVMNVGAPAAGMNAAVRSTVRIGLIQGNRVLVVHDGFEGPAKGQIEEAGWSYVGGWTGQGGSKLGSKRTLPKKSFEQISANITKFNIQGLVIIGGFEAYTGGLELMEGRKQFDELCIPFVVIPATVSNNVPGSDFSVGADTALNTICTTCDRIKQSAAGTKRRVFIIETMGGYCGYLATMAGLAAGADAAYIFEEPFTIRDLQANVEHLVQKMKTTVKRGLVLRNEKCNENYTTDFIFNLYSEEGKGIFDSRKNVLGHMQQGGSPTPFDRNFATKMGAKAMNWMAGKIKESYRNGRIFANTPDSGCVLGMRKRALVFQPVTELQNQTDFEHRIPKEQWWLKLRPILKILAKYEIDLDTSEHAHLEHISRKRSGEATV

[2] = molecular target: the molecule itself; assay: intrinsic fluorescence spectra (center of mass); purified PFK incubated 1 h with 0, 25, 50, 100 and 200 uM EGCG; conditions as for the radioassay (50 mM Tris-HCl pH 7.4, 5 mM MgCl2, 5 mM (NH4)2SO4, 1 mM F6P, 1 mM ATP, 1 mg/ml purified PFK); excitation 280 nm, emission 300-400 nm; tetramer to dimers

Molecule | IC50 [1] [µM] | stoichiometry N [2]
O=C(O[C@@H]1Cc2c(O)cc(O)cc2O[C@@H]1c1cc(O)c(O)c(O)c1)c1cc(O)c(O)c(O)c1 [EGCG, epigallocatechin-3-gallate] | 124 | 
B1 |  | 2
